In data set [1] the test system is Chlorella sp. Conditions: pH lowered from about 7.5 to 3.5 for 15 minutes, raised back with 5M NaOH. Here is the method: The first 400 ml culture was maintained as an untreated control at a pH of about 7.5. […] The pH treatments were applied directly to the cultures, without previous concentration of the microalgae or subsequent dilution through inoculation into fresh culture media. All cultures were incubated with shaking at 100 rpm in 5% carbon dioxide and 25° C. […] 100 μM photon/m^2 s of light was also provided to create mixotrophic growth conditions. The cultures were monitored for 4 days (96 hours with dry weight samples taken at 0, 48, and 96 hours). Live bacteria count samples were taken at 0 and 48 hours, and quantified using aerobic colony forming units (CFU) obtained from plate counts utilizing Petrifilm available from 3M (St. Paul, Minn.). A bacteria to microalgae ratio was also quantified using guava flow cytometry.

The test system of data set [2] is Chlorella sp. Conditions: culture at 1,029 mg/L acetate, pH 3.5 for 15 minutes, returned to 7.5 with 2 M NaOH. On the procedure: The pH treated culture samples were maintained at the culture pH of 3.5 for 15 minutes before returning the culture pH to 7.5 by adding 2 M NaOH.
The pH treatment was applied directly into the culture, without previous concentration or subsequent dilution through inoculation into a fresh media. All cultures were incubated with shaking at 100 rpm in 5% carbon dioxide and 25° C. […] 100 μM photon/m^2 s of light was also provided to create mixotrophic growth conditions. The cultures were monitored for 4 days (96 hours with dry weight samples taken at 0, 48, and 96 hours). Residual acetate analyses were carried at the end of the experiment.

For data set [3] the following is noted: in water; cited from earlier work.
Data set [4] concerns live bacteria in mixotrophic culture of Chlorella. Conditions: for Total live bacteria count: pH lowered to 3.5 with hydrochloric acid. Here is the method:
The 2 L sample was split into equal 1 L cultures in flasks, and incubated at 25° C. and 100 rpm (shaking) for 24 hours to allow metabolization of any residual acetate in the cultures. The two cultures were then blended together and then separated into equal 1 L cultures to ensure homogeneity in the two cultures. […] Samples were taken from both cultures to quantify the initial live bacteria count and subsequent counts using aerobic colony forming units (CFU) obtained from plate counts utilizing Petrifilm available from 3M (St. Paul, Minn.).

The test system of data set [5] is Chlorella sp. On the procedure: 100 mL volume cultures were prepared in 250 mL flasks, and cultured at a temperature of 25° C., a shaking frequency of 100 rpm, and a light intensity of 100 μM photon/m^2 s for 7 days (168 hours). The cultures were inoculated into two times BG-11 culture media at a cell density of 1.12 g/L. The different treatments of sodium acetate consisted of concentrations of 0, 2.5, 5, 7.5, 10, 20, 30, and 40 g/L. Samples were taken every 24 hours to measure the cell dry weights (g/L) of the cultures.

Read-outs that look alike come from different tables or passages of the source.

For `CC(=O)O` [Acetic acid, acetic acid], the cell dry weight came to 0.76 ± 0.00 g/L in data set [1] (0 h), 1.73 ± 0.04 g/L in data set [1] (48 h) and 3.46 ± 0.09 g/L in data set [1] (96 h). Also, the “Cell Dry Weight” value in data set [2] (0 h) is recorded as 0.80 ± 0.02 g/L; in data set [2] (48 h), 0.78 ± 0.06 g/L; in data set [2] (96 h) it was 0.89 ± 0.01 g/L.

With `O=C(O)CC(O)C(=O)O` (centres unmarked) [malic acid], the pKa result in data set [3] is on record as “about 3.4”.

As to `CCCCCCCCCCCCCCCC(=O)O` [palmitic acid], the pKa entry in data set [3] was “about 4.7”.

With `CC(=O)C(=O)O` [pyruvic acid], the pKa result in data set [3] is “about 2.5”.

Take `CC(=O)[O-].[Na+]` [sodium acetate]: in data set [4] (2.5 g/L sodium acetate, pH 3.5 with HCl, after 60 minutes), the “live bacteria counts (below detection)” value is listed as < 1,000 CFU/ml. Moreover, the live bacteria result in data set [4] (2.5 g/L sodium acetate, pH 3.5 with HCl, after 180 minutes) is on record as “no measurable live bacterium”. Further, the “Total live bacteria count” value in data set [4] (2.5 g/L sodium acetate, 0 min) is 5.00E+06 CFU; in data set [4] (2.5 g/L sodium acetate, 5 min), 8.00E+04 CFU; in data set [4] (2.5 g/L sodium acetate, 15 min) it was 4.00E+04 CFU; in data set [4] (2.5 g/L sodium acetate, 30 min) it was “none detected”; in data set [4] (2.5 g/L sodium acetate, 60 min) it was 1.00E+03 CFU; in data set [4] (2.5 g/L sodium acetate, 180 min) it was 1.00E+03 CFU. The “reduction in live bacteria” value in data set [4] (sodium acetate present and treated with second acid, after 60 minutes) is listed as 3.5 order of magnitude. Moreover, the “Growth of Chlorella” value is on record as 0.620 g/L day in data set [5] (2.5 g/L sodium acetate); 0.065 g/L day in data set [5] (5 g/L sodium acetate); “did not show any growth” in data set [5] (concentrations of 7.5 g/L and higher). For the same compound, the “Cell dry weights of treatments by Concentration of Sodium Acetate” value (shortened to “Cell dry weights of treatments”) in data set [5] (2.5 g/L sodium acetate, 0 h) came out at 0.12 g/L; in data set [5] (2.5 g/L sodium acetate, 24 h), 0.23 g/L; in data set [5] (2.5 g/L sodium acetate, 48 h), 0.85 g/L; in data set [5] (2.5 g/L sodium acetate, 72 h), 1.10 g/L; in data set [5] (2.5 g/L sodium acetate, 144 h) it was 2.72 g/L; in data set [5] (2.5 g/L sodium acetate, 168 h) it was 3.23 g/L. Besides, the “Cell dry weights of treatments” value was 0.12 g/L in data set [5] (5 g/L sodium acetate, 0 h); 0.19 g/L in data set [5] (5 g/L sodium acetate, 24 h); 0.25 g/L in data set [5] (5 g/L sodium acetate, 48 h); 0.55 g/L in data set [5] (5 g/L sodium acetate, 72 h); 1.89 g/L in data set [5] (5 g/L sodium acetate, 144 h); 2.41 g/L in data set [5] (5 g/L sodium acetate, 168 h). Moreover, the “Cell dry weights of treatments” value in data set [5] (7.5 g/L sodium acetate, 0 h) is reported as 0.12 g/L; in data set [5] (7.5 g/L sodium acetate, 24 h), 0.17 g/L; in data set [5] (7.5 g/L sodium acetate, 48 h), 0.15 g/L; in data set [5] (7.5 g/L sodium acetate, 72 h), 0.13 g/L; in data set [5] (7.5 g/L sodium acetate, 144 h), 0.10 g/L; in data set [5] (7.5 g/L sodium acetate, 168 h), 0.07 g/L. The “Cell dry weights of treatments” value in data set [5] (10 g/L sodium acetate, 0 h) was 0.12 g/L; in data set [5] (10 g/L sodium acetate, 24 h) it was 0.13 g/L; in data set [5] (10 g/L sodium acetate, 48 h), 0.16 g/L; in data set [5] (10 g/L sodium acetate, 72 h), 0.11 g/L; in data set [5] (10 g/L sodium acetate, 144 h), 0.09 g/L; in data set [5] (10 g/L sodium acetate, 168 h), 0.00 g/L. Also, the “Cell dry weights of treatments” value in data set [5] (20 g/L sodium acetate, 0 h) was 0.12 g/L; in data set [5] (20 g/L sodium acetate, 24 h) it was 0.16 g/L; in data set [5] (20 g/L sodium acetate, 48 h) it was 0.13 g/L; in data set [5] (20 g/L sodium acetate, 72 h) it was 0.12 g/L; in data set [5] (20 g/L sodium acetate, 144 h), 0.07 g/L; in data set [5] (20 g/L sodium acetate, 168 h), 0.00 g/L. In addition, the “Cell dry weights of treatments” value in data set [5] (30 g/L sodium acetate, 0 h) is on record as 0.12 g/L; in data set [5] (30 g/L sodium acetate, 24 h), 0.14 g/L; in data set [5] (30 g/L sodium acetate, 48 h), 0.11 g/L; in data set [5] (30 g/L sodium acetate, 72 h), 0.09 g/L; in data set [5] (30 g/L sodium acetate, 144 h), 0.08 g/L; in data set [5] (30 g/L sodium acetate, 168 h) it was 0.00 g/L. Besides, the “Cell dry weights of treatments” value turned out to be 0.12 g/L in data set [5] (40 g/L sodium acetate, 0 h); 0.11 g/L in data set [5] (40 g/L sodium acetate, 24 h); 0.09 g/L in data set [5] (40 g/L sodium acetate, 48 h); 0.10 g/L in data set [5] (40 g/L sodium acetate, 72 h); 0.09 g/L in data set [5] (40 g/L sodium acetate, 144 h); 0.00 g/L in data set [5] (40 g/L sodium acetate, 168 h). The “tolerance limit for this strain of Chlorella” value in data set [5] (as restated in Example 10) is reported as 7500 mg/L. Also, the “acetate concentration tolerance for Chlorella” value in data set [5] (mixotrophic flask culture, 7 days) is listed as “approximately 7.5 g/L”.

Values taken from US9416347B2, “Method of treating bacterial contamination in a microalgae culture with pH shock” (Heliae Development LLC, priority 2014, dated 2016).
